# From patent US20210386721A1, “SUBSTITUTED PHENYLPROPENYL PYRIDINE DERIVATIVES, THEIR PREPARATION AND PHARMACEUTICAL APPLICATIONS” (SHANGHAI HAIYAN PHARMACEUTICAL TECHNOLOGY CO., LTD., priority 2019, published 2021)
# Target: T1, PD-1/PD-L1 (Homo sapiens, UniProt Q9NZQ7)
# T1 construct: purchased Cisbio 63ADK000CPDPEB
# Assay: PD-1/PD-L1 binding assay (HTRF, PPI-HTRF)
# Details: HTRF PD1/PD-L1 binding assay kit; 10 nM Tag1-PD-L1; 25° C.
# Procedure: Assay 1 PD-1/PD-L1 Binding Assay
# DMSO is from Sigma, Cat No: D5879; 384-well small volume plate (white) is from Greiner, Cat No: 784075; Anti-PD1 blocking antibody (IC50: 10 nM) is from Cisbio, Cat No: 64CUS000C-1a; Anti-PDL1 blocking antibody (IC50: 0.3 nM) is from Cisbio, Cat No: 64CUS000C-1b; HTRF PD1/PD-L1 binding assay kit is from Cisbio, Cat No: 63ADK000CPDPEB.
# 1. Prepare the compound to be tested at 2x concentration into 1× reaction buffer containing 4% DMSO;
# 2. Tag1-PD-L1 protein and Tag2-PD1 protein were prepared in 1× reaction buffer at concentrations of […] and 10 nM, respectively. The final reaction concentration of the experiment was 10 nM Tag1-PD-L1 and 2 nM […];
# 3. anti-Tag1-Eu3+ antibody is prepared in 1x concentration detection buffer at a ratio of 1:100;
# 4. anti-Tag2-XL665 antibody is prepared in 1x concentration detection buffer at a ratio of 1:25; Experimental steps
# 1. 5 μL of compounds to be tested (2×) was added;
# 2. 2.5 ul Tag1-PD-L1 protein and 2.5 ul Tag2-PD1 protein were added respectively, and the total reaction system is 10 ul, and reacted at 25° C. for 15 minutes;
# 3. 5 ul anti-Tag1-Eu3+ antibody and 5 ul anti-Tag2-XL665 antibody were added respectively, and reacted at 25° C. for 16 hours;
# 4. The fluorescence microplate reader HTRF reading program was used to read two readings at 665 nm and 620 nm, the ratio of the two wavelengths was used to judge the activity of the compound, and the IC50 of the compound to be tested is calculated by XLFIT5.0 (IDBS).
# T1 sequence (Q9NZQ7 19-238 limits assumed): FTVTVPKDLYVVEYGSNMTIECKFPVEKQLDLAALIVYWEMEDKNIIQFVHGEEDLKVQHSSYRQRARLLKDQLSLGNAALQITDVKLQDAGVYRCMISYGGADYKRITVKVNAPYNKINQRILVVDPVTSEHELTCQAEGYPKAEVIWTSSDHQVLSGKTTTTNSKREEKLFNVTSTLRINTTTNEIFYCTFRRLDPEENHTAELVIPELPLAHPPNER
row,SMILES,IC50 [nM]
1,COc1cc(/C=C/c2cccc(-c3cccc(-c4nc5cc(CN6CCC[C@H]6C(=O)O)cc(C#N)c5o4)c3C)c2C)c(C(F)(F)F)cc1CN1CC[C@@H](O)C1 [Z-39],1
2,COc1cc(/C=C/c2nccc(-c3cccc(Nc4nccc5cc(CN6CC[C@@H](O)C6)cnc45)c3C)c2C#N)c(C(F)(F)F)cc1CN1CC[C@@H](C(=O)O)C1 [Z-13],2
3,COc1cc(/C=C/c2cccc(-c3cccc(-c4nc5cc(CN6CC[C@@H](C(=O)O)C6)cc(C#N)c5o4)c3F)c2C)c(C(F)(F)F)cc1CN1CC[C@@H](O)C1 [Z-28],5
4,"Cc1cc(/C=C/c2nccc(-c3cccc(Nc4nccc5cc(CN6CC[C@@H](O)C6)cnc45)c3C)c2C#N)c(Cl)cc1CN1CCCC[C@H]1C(=O)O [Z-7, (S)-1-(5-chloro-4-((E)-2-(3-cyano-4-(3-((3-(((R)-3-hydroxypyrrolidin-1-yl)methyl)-1,7-naphthyridin-8-yl)amino)-2-methylphenyl)pyridin-2-yl)vinyl)-2-methylbenzyl)piperidine-2-carboxylic Acid]",1
5,Cc1cc(/C=C/c2nccc(-c3cccc(-c4nc5cc(CN6CC[C@@H](O)C6)ccc5o4)c3C)c2C#N)c(Cl)cc1CN1CC[C@@H](C(=O)O)C1 [Z-47],1
6,COc1cc(/C=C/c2nccc(-c3cccc(-c4nc5cc(CN6CC[C@@H](C(=O)O)C6)cc(C#N)c5o4)c3C)c2C#N)c(C(F)(F)F)cc1CN1CC[C@@H](O)C1 [Z-50],1
7,COc1cc(/C=C/c2cccc(-c3cccc(-c4nc5cc(CN6CC[C@@H](O)C6)cc(Cl)c5o4)c3C)c2C)c(C(F)(F)F)cc1CN1CC[C@@H](C(=O)O)C1 [Z-22],2
8,Cc1cc(/C=C/c2cccc(-c3cccc(-c4nc5cc(CN6CC[C@@H](O)C6)ccc5o4)c3C)c2C)c(C(F)(F)F)cc1CN1CC[C@@H](C(=O)O)C1 [Z-17],1
9,COc1cc(/C=C/c2cccc(-c3cccc(-c4nc5cc(CN6CC[C@@H](O)C6)ccc5o4)c3C)c2F)c(C(F)(F)F)cc1CN1CC[C@@H](C(=O)O)C1 [Z-20],2
10,Cc1cc(/C=C/c2nccc(-c3cccc(-c4nc5cc(CN6CC[C@@H](C(=O)O)C6)cc(Cl)c5o4)c3C)c2C#N)c(C(F)(F)F)cc1CN1CC[C@@H](O)C1 [Z-48],2
11,COc1cc(/C=C/c2cccc(-c3cccc(-c4nc5cc(CN6CC[C@@H](C(=O)O)C6)cc(C#N)c5o4)c3C)c2F)c(C(F)(F)F)cc1CN1CC[C@@H](O)C1 [Z-25],1
12,COc1cc(/C=C/c2cccc(-c3cccc(-c4nc(OC)c(CNC[C@@H]5CCC(=O)N5)cc4Cl)c3C)c2C)c(C(F)(F)F)cc1CN1CC[C@@H](C(=O)O)C1 [Z-55],3
13,"Cc1c(NC(=O)c2ccc(CNCCO)cn2)cccc1-c1ccnc(/C=C/c2ccc3c(c2)CCN(CC(=O)O)C3)c1C#N [Z-3, (E)-2-(6-(2-(3-cyano-4-(3-(5-(((2-hydroxyethyl)amino)methyl)picolinamido)-2-methylphenyl)pyridin-2-yl)vinyl)-3,4-dihydroisoquinolin-2(1H)-yl)acetic Acid]",9
14,"Cc1cc(/C=C/c2nccc(-c3cccc(NC(=O)c4ccc(CN5CCCC[C@@H]5C(=O)O)cn4)c3C)c2C#N)c(Cl)cc1CN1CC[C@@H](O)C1 [Z-6, (R)-1-((6-((3-(2-((E)-2-chloro-4-(((R)-3-hydroxypyrrolidin-1-yl)methyl)-5-methylstyryl)-3-cyanopyridin-4-yl)-2-methylphenyl)carbamoyl)pyridin-3-yl)methyl)piperidine-2-carboxylic Acid]",2
15,COc1cc(/C=C/c2cccc(-c3cccc(-c4nc5cc(CN6CC[C@H](C(=O)O)C6)ccc5o4)c3C)c2C)c(C(F)(F)F)cc1CN1CC[C@H](O)C1 [Z-32],2

# Now from value to molecule:
row,IC50 [nM],SMILES
1,5,COc1cc(/C=C/c2cccc(-c3cccc(NC(=O)c4cc(OC)c(CN5CC[C@@H](C(=O)O)C5)cn4)c3C)c2C)c(C(F)(F)F)cc1CN1CC[C@@H](O)C1 [Z-136]
2,1,COc1cc(/C=C/c2cccc(-c3cccc(NC(=O)c4ccc(CN5CC[C@@H](O)C5)cn4)c3C#N)c2Cl)c(C(F)(F)F)cc1CN1CC[C@@H](C(=O)O)C1 [Z-104]
3,1,"COc1cc(/C=C/c2cccc(-c3cccc(NC(=O)c4nc5c(n4C)CCN(C)C5)c3C)c2C)c(C(F)(F)F)cc1CN1CC[C@@H](C(=O)O)C1 [Z-126, (R,E)-1-(4-(2-(3′-(1,5-dimethyl-4,5,6,7-tetrahydro-1H-imidazo[4,5-c]pyridine-2-carboxamido)-2,2′-dimethyl-[1,1′-biphenyl]-3-yl)vinyl)-2-methoxy-5-(trifluoromethyl)benzyl)pyrrolidine-3-carboxylic Acid]"
4,32,Cc1c(NC(=O)c2ccc(CNCCO)cn2)cccc1-c1ccnc(/C=C/c2ccc3c(c2)CCN(CCO)C3)c1C#N [Z-63]
5,1,COc1cc(/C=C/c2cccc(-c3cccc(NC(=O)c4ccc(CN5CC[C@@H](O)C5)cc4)c3C)c2C)c(C(F)(F)F)cc1CN1CC[C@@H](C(=O)O)C1 [Z-123]
6,3,"COc1cc(/C=C/c2cccc(-c3cccc(OC4CCc5cc(CN6CC[C@@H](O)C6)ccc54)c3Cl)c2C)c(C(F)(F)F)cc1CN1CC[C@@H](C(=O)O)C1 (stereo partly drawn) [Z-62, (3R)-1-(4-((E)-2-(2′-chloro-3′-((5-(((R)-3-hydroxypyrrolidin-1-yl)methyl)-2,3-dihydro-1H-inden-1-yl)oxy)-2-methyl-[1,1′-biphenyl]-3-yl)vinyl)-2-methoxy-5-(trifluoromethyl)benzyl)pyrrolidine-3-carboxylic Acid]"
7,1,COc1cc(C(=O)Nc2cccc(-c3cccc(/C=C/c4cc(C)c(CN5CC[C@@H](C(=O)O)C5)cc4C(F)(F)F)c3C)c2C)ncc1CN1CC[C@@H](O)C1 [Z-127]
8,36,COc1cc(/C=C/c2nccc(-c3cccc(NC(=O)c4ccc(CN5CC[C@@H](O)C5)cn4)c3C)c2C#N)cc(OC)c1CN1CCCC[C@H]1C(=O)O [Z-75]
9,3,COc1cc(/C=C/c2cccc(-c3cccc(NC(=O)c4ccc(CN5CC[C@@H](O)C5)c(OC)n4)c3C)c2C)c(C(F)(F)F)cc1CN1CCC[C@H]1C(=O)O [Z-116]
10,18,Cc1c(NC(=O)c2ccc(CN3CC[C@@H](O)C3)cn2)cccc1-c1ccnc(/C=C/c2cc3nc(CN4CC[C@H](C(=O)O)C4)oc3cc2Cl)c1C#N [Z-64]
11,13,"Cc1cc(/C=C/c2nccc(-c3cccc(NC(=O)c4ccc(CN5CC[C@@H](O)C5)cn4)c3C)c2C#N)c(Cl)cc1CN1CC2(CC(C(=O)O)C2)C1 [Z-78, (R,E)-2-(5-chloro-4-(2-(3-cyano-4-(3-(5-((3-hydroxypyrrolidin-1-yl)methyl)picolinamido)-2-methylphenyl)pyridin-2-yl)vinyl)-2-methylbenzyl)-2-azaspiro[3.3]heptane-6-carboxylic Acid]"
12,57,Cc1c(NC(=O)c2ccc(CN3CC[C@@H](O)C3)cn2)cccc1-c1ccnc(/C=C/c2ccc(CN3CC[C@@H](C(=O)O)C3)cn2)c1C#N [Z-69]
13,2,"Cc1cc(/C=C/c2nccc(-c3cccc(-c4nc5c(s4)CN(C(=O)CN(C)C)CC5)c3C)c2C#N)c(Cl)cc1CN1CC[C@@H](C(=O)O)C1 [Z-61, (R,E)-1-(5-chloro-4-(2-(3-cyano-4-(3-(5-(dimethylglycyl)-4,5,6,7-tetrahydrothiazolo [5,4-c]pyridin-2-yl)-2-methylphenyl)pyridin-2-yl)vinyl)-2-methylbenzyl)pyrrolidine-3-carboxylic Acid]"
14,3,Cc1cc(/C=C/c2cccc(-c3cccc(NC(=O)c4ccc(CN5CC[C@@H](O)C5)cn4)c3C)c2C(F)(F)F)c(Cl)cc1CN1CC[C@@H](C(=O)O)C1 [Z-88]
15,2,"Cc1cc(/C=C/c2nccc(-c3cccc(NC(=O)c4nc5c(n4C)CCN(C)C5)c3C)c2C#N)c(Cl)cc1CN1CCCC[C@H]1C(=O)O [Z-66, (S,E)-1-(5-chloro-4-(2-(3-cyano-4-(3-(1,5-dimethyl-4,5,6,7-tetrahydro-1H-imidazo[4,5-c]pyridine-2-carboxamido)-2-methylphenyl)pyridin-2-yl)vinyl)-2-methylbenzyl)piperidine-2-carboxylic Acid]"
16,3,"Cc1cc(/C=C/c2nccc(-c3cccc(NC(=O)c4ccc(CN5CCOCC5)cn4)c3C)c2C#N)c(Cl)cc1CN1CC[C@@H](C(=O)O)C1 [Z-70, (R,E)-1-(5-chloro-4-(2-(3-cyano-4-(2-methyl-3-(5-(morpholinomethyl)picolinamido)phenyl)pyridin-2-yl)vinyl)-2-methylbenzyl)pyrrolidine-3-carboxylic Acid]"
17,1,"COc1cc(/C=C/c2cccc(-c3cccc(NC(=O)c4cn5c(n4)CN(C)CC5)c3C)c2C)c(C(F)(F)F)cc1CN1CCC(C(=O)O)C1 (centres unmarked) [Z-129, (E)-1-(4-(2-(2,2′-dimethyl-3′-(7-methyl-5,6,7,8-tetrahydroimidazo[1,2-a]pyrazine-2-carboxamido)-[1,1′-biphenyl]-3-yl)vinyl)-2-methoxy-5-(trifluoromethyl)benzyl)pyrrolidine-3-carboxylic Acid]"
